Laboratory results from patent US12264159B2, “Functionalized heterocycles as antiviral agents” (Enanta Pharmaceuticals, Inc., priority 2018, dated 2025).
pEC50: −log10 of the molar value.

Tests used:
HBV in 2.2.15 cells = assay: 2.2.15 cells: viral product in cell lysates quantified via quantitative real time PCR; assay type: cell-based, hepatitis B virus (HBV); conditions: Hepatitis B virus, 120 h, day 5 post treatment, 50% reduction of viral product vs no drug controls, readout (qPCR, HBsAg or HBeAg) not specified for the column
Protocol: 2.2.15 cells are passaged upon attaining confluency in DMEM/F12 media in the presence of 10% FBS, Penn/Strep, and 250 ug/mL G418. Novel compounds are 5 fold serially diluted in DMSO and added to 96 well plates containing 35,000 cells/well at a 1:200 dilution so that the final concentration of DMSO is 0.5%. On day 5, post treatment cell lysates and supernatants are harvested for analysis.
Cells are lysed using Agilent Sidestep Lysis buffer, diluted 1:100 and quantified via quantitative real time PCR. Commercially available ELISA kits are used to quantitate the viral proteins HBsAg (Alpco) or HBeAg (US Biological) by following the manufacturer's recommended protocol after diluting samples to match the linear range of their respective assays. Irrespective of readout, compound concentrations that reduce viral product accumulation in the cell lysates or supernatants by 50% relative to no drug controls (EC50) are reported; EC50 ranges are as follows: A<0.1 μM; B 0.2-1 μM; C>1 μM.

[1] = Compound induced cellular toxicity in HepG2 cells, ATPlite 1Step; assay type: cell-based; conditions: human, three days exposure, 50% reduction of total ATP vs no drug controls
Protocol: At day 3, post seeding cells are treated with ATPlite 1Step according to the manufacturer's instructions.

| Structure (SMILES) | pEC50 (HBV in 2.2.15 cells) | CC50 at 3 days [1] |
| --- | --- | --- |
| CC(C)(C)[C@@H]1Cn2nc(-c3ccccc3C#N)cc2-c2cc(=O)c(C(=O)O)cn21 [Example 40, (R)-6-(tert-butyl)-2-(2-cyanophenyl)-10-oxo-5,6-dihydro-10H-pyrazolo[1,5-a]pyrido[2,2-c]pyrazine-12-carboxylic acid] | > 7.00 | > 25 µM |
| CC(C)(C)[C@@H]1Cn2nc(-c3ccccc3O)cc2-c2cc(=O)c(C(=O)O)cn21 [Example 46, (R)-6-(tert-butyl)-2-(2-hydroxyphenyl)-10-oxo-5,6-dihydro-10H-pyrazolo[1,5-a]pyrido[2,2-c]pyrazine-12-carboxylic acid] | > 7.00 | > 25 µM |
| CC(C)(C)[C@@H]1Cn2nc(C3CC3)c(-c3ccccc3F)c2-c2cc(=O)c(-c3ncn[nH]3)cn21 [Example 198, (R)-6-(tert-butyl)-2-cyclopropyl-1-(2-fluorophenyl)-9-(1H-1,2,4-triazol-5-yl)-5,6-dihydro-10H-pyrazolo[1,5-a]pyrido[2,1-c]pyrazin-10-one] | > 7.00 | > 25 µM |
| COc1ccc(OC)c(-c2cc3n(n2)C[C@@H](C(C)(C)C)n2cc(C(=O)O)c(=O)cc2-3)c1 [Example 32, (R)-6-(tert-butyl)-2-(2,5-dimethoxyphenyl)-10-oxo-5,6-dihydro-10H-pyrazolo[1,5-a]pyrido[2,2-c]pyrazine-12-carboxylic acid] | > 7.00 | > 25 µM |
| CCCCOc1ccccc1-c1cc2n(n1)C[C@@H](C(C)(C)C)n1cc(C(=O)O)c(=O)cc1-2 [Example 78, (R)-2-(2-butoxyphenyl)-6-(tert-butyl)-10-oxo-5,6-dihydro-10H-pyrazolo[1,5-a]pyrido[2,2-c]pyrazine-12-carboxylic acid] | > 7.00 | > 25 µM |
| CC(C)(C)[C@@H]1Cn2nc(-c3c(O)cccc3F)cc2-c2cc(=O)c(C(=O)O)cn21 [Example 47, (R)-6-(tert-butyl)-2-(2-fluoro-6-hydroxyphenyl)-10-oxo-5,6-dihydro-10H-pyrazolo[1,5-a]pyrido[2,2-c]pyrazine-12-carboxylic acid] | > 7.00 | > 25 µM |
| COc1cccc(-c2cc3n(n2)C[C@@H](C(C)(C)C)n2cc(C(=O)O)c(=O)cc2-3)c1C#N [Example 45, (R)-6-(tert-butyl)-2-(2-cyano-3-methoxyphenyl)-10-oxo-5,6-dihydro-10H-pyrazolo[1,5-a]pyrido[2,2-c]pyrazine-12-carboxylic acid] | > 7.00 | > 25 µM |
| CC(C)(C)[C@@H]1Cn2nc(C3CC3)c(-c3cccc(F)c3)c2-c2cc(=O)c(-c3ncn[nH]3)cn21 [Example 197, (R)-6-(tert-butyl)-2-cyclopropyl-1-(3-fluorophenyl)-9-(1H-1,2,4-triazol-5-yl)-5,6-dihydro-10H-pyrazolo[1,5-a]pyrido[2,1-c]pyrazin-10-one] | > 7.00 | > 25 µM |
| COc1cccc(-c2cnn3c2-c2cc(=O)c(C(=O)O)cn2[C@H](C(C)(C)C)C3)c1 [Example 113, (R)-6-(tert-butyl)-1-(3-methoxyphenyl)-10-oxo-5,6-dihydro-10H-pyrazolo[1,5-a]pyrido[2,1-c]pyrazine-9-carboxylic acid] | > 7.00 | > 25 µM |
| CCOc1ccccc1-c1nc2n(n1)C[C@@H](C(C)(C)C)n1cc(C(=O)O)c(=O)cc1-2 [Example 86, (R)-6-(tert-butyl)-2-(2-ethoxyphenyl)-10-oxo-5,6-dihydro-10H-pyrido[1,2-a][1,2,4]triazolo[5,2-c]pyrazine-12-carboxylic acid] | > 7.00 | > 25 µM |
| CC(C)(C)[C@@H]1Cn2nc(-c3ccc(F)cc3)c(-c3ccccc3F)c2-c2cc(=O)c(C(=O)O)cn21 [Example 169, (R)-6-(tert-butyl)-1-(2-fluorophenyl)-2-(4-fluorophenyl)-10-oxo-5,6-dihydro-10H-pyrazolo[1,5-a]pyrido[2,1-c]pyrazine-9-carboxylic acid] | > 7.00 | 10 to 25 µM |
| CC(C)(C)[C@@H]1Cn2nc(-c3c(F)ccc4c3OCO4)cc2-c2cc(=O)c(C(=O)O)cn21 [Example 54, (R)-6-(tert-butyl)-2-(5-fluorobenzo[d][1,3]dioxol-4-yl)-10-oxo-5,6-dihydro-10H-pyrazolo[1,5-a]pyrido[2,2-c]pyrazine-12-carboxylic acid] | > 7.00 | > 25 µM |
| CC(C)(C)[C@@H]1Cn2ncc(-c3ccc(F)cc3F)c2-c2cc(=O)c(C(=O)O)cn21 [Example 100, (R)-6-(tert-butyl)-1-(2,4-difluorophenyl)-10-oxo-5,6-dihydro-10H-pyrazolo[1,5-a]pyrido[2,1-c]pyrazine-9-carboxylic acid] | > 7.00 | > 25 µM |
| CC(C)[C@@H]1Cn2nc(C3CC3)c(-c3cccs3)c2-c2cc(=O)c(C(=O)O)cn21 [Example 131, (R)-2-cyclopropyl-6-isopropyl-10-oxo-1-(thiophen-2-yl)-5,6-dihydro-10H-pyrazolo[1,5-a]pyrido[2,1-c]pyrazine-9-carboxylic acid] | > 7.00 | > 25 µM |
| COc1cccc(C(N)=O)c1-c1cc2n(n1)C[C@@H](C(C)(C)C)n1cc(C(=O)O)c(=O)cc1-2 [Example 52, (R)-6-(tert-butyl)-2-(2-carbamoyl-6-methoxyphenyl)-10-oxo-5,6-dihydro-10H-pyrazolo[1,5-a]pyrido[2,2-c]pyrazine-12-carboxylic acid] | 6.00 to 6.70 | > 25 µM |
| CC(C)(C)[C@@H]1Cn2ncc(-c3ccccc3F)c2-c2cc(=O)c(C(=O)O)cn21 [Example 104, (R)-6-(tert-butyl)-1-(2-fluorophenyl)-10-oxo-5,6-dihydro-10H-pyrazolo[1,5-a]pyrido[2,1-c]pyrazine-9-carboxylic acid] | > 7.00 | 10 to 25 µM |
| CC(C)(C)[C@@H]1Cn2nc(-c3ccc(OC(F)(F)F)cc3)cc2-c2cc(=O)c(C(=O)O)cn21 [Example 25, (R)-6-(tert-butyl)-10-oxo-2-(4-(trifluoromethoxy)phenyl)-5,6-dihydro-10H-pyrazolo[1,5-a]pyrido[2,2-c]pyrazine-12-carboxylic acid] | 6.00 to 6.70 | > 25 µM |
| CCCOc1ccccc1-c1cc2n(n1)C[C@@H](C(C)(C)C)n1cc(C(=O)O)c(=O)cc1-2 [Example 77, (R)-6-(tert-butyl)-10-oxo-2-(2-propoxyphenyl)-5,6-dihydro-10H-pyrazolo[1,5-a]pyrido[2,2-c]pyrazine-12-carboxylic acid] | > 7.00 | > 25 µM |
| Cc1ccc(-c2cnn3c2-c2cc(=O)c(C(=O)O)cn2[C@H](C(C)(C)C)C3)cc1 [Example 126, (R)-6-(tert-butyl)-10-oxo-1-(p-tolyl)-5,6-dihydro-10H-pyrazolo[1,5-a]pyrido[2,1-c]pyrazine-9-carboxylic acid] | > 7.00 | > 25 µM |
| CC(C)(C)[C@@H]1Cn2nc(C3CC3)c(-c3cccs3)c2-c2cc(=O)c(C(=O)O)cn21 [Example 156, (R)-6-(tert-butyl)-2-cyclopropyl-10-oxo-1-(thiophen-2-yl)-5,6-dihydro-10H-pyrazolo[1,5-a]pyrido[2,1-c]pyrazine-9-carboxylic acid] | > 7.00 | > 25 µM |
| CC(C)(C)[C@@H]1Cn2nc(-c3cccc4c3OCC4)cc2-c2cc(=O)c(C(=O)O)cn21 [Example 59, (R)-6-(tert-butyl)-2-(2,3-dihydrobenzofuran-7-yl)-10-oxo-5,6-dihydro-10H-pyrazolo[1,5-a]pyrido[2,2-c]pyrazine-12-carboxylic acid] | > 7.00 | > 25 µM |
| CC(C)(C)[C@@H]1Cn2nc(C3CC3)c(-c3cncs3)c2-c2cc(=O)c(C(=O)O)cn21 [Example 163, (R)-6-(tert-butyl)-2-cyclopropyl-10-oxo-1-(thiazol-5-yl)-5,6-dihydro-10H-pyrazolo[1,5-a]pyrido[2,1-c]pyrazine-9-carboxylic acid] | > 7.00 | > 25 µM |
| CC(C)(C)[C@@H]1Cn2cnc(-c3ccc(F)cc3)c2-c2cc(=O)c(C(=O)O)cn21 [Example 207, (R)-6-(tert-butyl)-1-(4-fluorophenyl)-10-oxo-5,6-dihydro-10H-imidazo[1,5-a]pyrido[2,1-c]pyrazine-9-carboxylic acid] | > 7.00 | > 25 µM |
| CC(C)(C)[C@@H]1Cn2nc(-c3ccncc3F)cc2-c2cc(=O)c(C(=O)O)cn21 [Example 41, (R)-6-(tert-butyl)-2-(3-fluoropyridin-4-yl)-10-oxo-5,6-dihydro-10H-pyrazolo[1,5-a]pyrido[2,2-c]pyrazine-12-carboxylic acid] | > 7.00 | > 25 µM |
| CC(C)[C@@H]1Cn2nc(-c3ccccc3)c(-c3ccccc3)c2-c2cc(=O)c(-c3ncn[nH]3)cn21 [Example 192, (R)-6-isopropyl-1,2-diphenyl-9-(1H-1,2,4-triazol-5-yl)-5,6-dihydro-10H-pyrazolo[1,5-a]pyrido[2,1-c]pyrazin-10-one] | > 7.00 | > 25 µM |
| CC(C)(C)[C@@H]1Cn2ncc(-c3ccc(F)c(F)c3)c2-c2cc(=O)c(C(=O)O)cn21 [Example 110, (R)-6-(tert-butyl)-1-(3,4-difluorophenyl)-10-oxo-5,6-dihydro-10H-pyrazolo[1,5-a]pyrido[2,1-c]pyrazine-9-carboxylic acid] | > 7.00 | < 10 µM |
